Measurements as given in PMC4815073, “Targeting of tubulin polymerization and induction of mitotic blockage by Methyl 2-(5-fluoro-2-hydroxyphenyl)-1H-benzo[d]imidazole-5-carboxylate (MBIC) in human cervical cancer HeLa cell” (Journal of Experimental & Clinical Cancer Research : CR, 2016).

What was measured:
HeLa cells [1] = assay: MTT cytotoxicity assay, HeLa; format: cell-based, human; conditions: for IC50: Homo sapiens, HeLa, MTT; for SI (Selectivity Index): IC50 WRL-68 / IC50 HeLa
Text: The human cervical cancer cell-line, HeLa (CCL-2.2; ATCC, Manassas, VA), HCT-116 (CCL-247; ATCC, Manassas, VA), A549 (CCL-185; ATCC, Manassas, VA), HepG-2 (HB-8065; ATCC, Manassas, VA) and WRL-68 (CL-48; ATCC, Manassas, VA), were obtained from American Type Culture Collection (ATCC). HeLa, A549, HepG2 and WRL68 cells were maintained in Dulbecco’s Modified Eagle Medium (DMEM, Life Technologies, Inc, Rockville, MD). HCT-116 was obtained in McCoy’s 5a Medium Modified (Life Technologies, Inc, Rockville, MD) supplemented with 10 % fetal bovine serum and 1 % penicillin/streptomycin. Cells were incubated at 37 °C in a humidified cell culture 5 % CO2 incubator. Cells were passaged until reaching 70-80-% confluency for experimental purposes.
Cytotoxicity of MBIC was estimated by MTT assay. Briefly, 1 × 10^4 cells/well were seeded in a 96-well plate and incubated at 37 °C in 5 % CO2. After 24 h, cells were treated with different concentrations (0.02, 0.04, 0.1, 0.2, 0.4, 0.8, 1.5, 3, 6, 12, 25, 50 μM) of MBIC. 0.01 % DMSO was used as vehicle control. Cells were incubated for 24 and 48 h at 37 °C. Subsequently, 50 μl/well of 3-(4,5-dimethylthiazol-2-yl)-2,5-diphenyltetrazolium bromide (MTT, 2 mg/ml) was added and incubated for 2 h. After the incubation, the media was discarded and 100 μl DMSO was replaced into each well to dissolve the formazan crystal. The colorimetric assay was quantified at 570 nm wavelength using Chameleon V microplate reader (Hidex, Turku, Finland). The anti-proliferation activity of MBIC was expressed as an IC50 value. The percentage of cell viability was calculated as described previously.

[2] = Annexin V-FITC/PI apoptosis detection by flow cytometry; format: cell-based, human; conditions: human, HeLa cells, read-out: viable cells (Q3, annexin V- PI-)
Method: (§1) Apoptosis was detected using BD Pharmingen Annexin V-FITC Apoptosis Detection Kit as per manufacturer’s protocol. Briefly, cells were seeded in 25 cm^2 culture flasks (10 × 10^5 cells/flask) and were treated in 3 different MBIC concentrations for 24 and 48 h. Later, treated cells were harvested and washed with 1 ml of 1X Phosphate Buffered-Saline (PBS) before adding 200 μl 1X annexin-binding buffer. 10 μl of annexin V-FITC and 10 μl of PI were added to each 200 μl of cell suspension. Cells were then incubated in total darkness for 15 min at room temperature. 500 μl of 1X annexin-binding buffer was added just before the flow cytometry analysis.

HeLa cells [3] = assay: as above; format: cell-based, human; conditions: 24 h
Method: as §1

tubulin = molecular target: T1, tubulin (Sus scrofa, UniProt P02550+P02554); assay: Tubulin polymerization assay; format: biochemical; conditions: 10 μM drug, 3 mg/ml tubulin, 37 °C, 340 nm; untreated 12 mOD/min
T1 construct: purchased Cytoskeleton BK011P
T1 sequence (P02550 whole entry): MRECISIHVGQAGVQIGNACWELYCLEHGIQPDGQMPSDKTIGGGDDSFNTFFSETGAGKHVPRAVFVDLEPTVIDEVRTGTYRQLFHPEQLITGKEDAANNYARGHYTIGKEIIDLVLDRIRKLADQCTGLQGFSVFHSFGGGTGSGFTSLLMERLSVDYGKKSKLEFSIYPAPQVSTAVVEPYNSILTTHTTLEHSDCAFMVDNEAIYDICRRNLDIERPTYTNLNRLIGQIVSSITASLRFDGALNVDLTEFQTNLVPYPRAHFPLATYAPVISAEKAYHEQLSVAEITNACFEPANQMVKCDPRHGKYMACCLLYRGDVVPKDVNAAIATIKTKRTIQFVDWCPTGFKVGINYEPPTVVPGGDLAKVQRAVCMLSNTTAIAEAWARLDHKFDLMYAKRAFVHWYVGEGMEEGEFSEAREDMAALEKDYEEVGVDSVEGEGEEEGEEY
T1 sequence (P02554 whole entry): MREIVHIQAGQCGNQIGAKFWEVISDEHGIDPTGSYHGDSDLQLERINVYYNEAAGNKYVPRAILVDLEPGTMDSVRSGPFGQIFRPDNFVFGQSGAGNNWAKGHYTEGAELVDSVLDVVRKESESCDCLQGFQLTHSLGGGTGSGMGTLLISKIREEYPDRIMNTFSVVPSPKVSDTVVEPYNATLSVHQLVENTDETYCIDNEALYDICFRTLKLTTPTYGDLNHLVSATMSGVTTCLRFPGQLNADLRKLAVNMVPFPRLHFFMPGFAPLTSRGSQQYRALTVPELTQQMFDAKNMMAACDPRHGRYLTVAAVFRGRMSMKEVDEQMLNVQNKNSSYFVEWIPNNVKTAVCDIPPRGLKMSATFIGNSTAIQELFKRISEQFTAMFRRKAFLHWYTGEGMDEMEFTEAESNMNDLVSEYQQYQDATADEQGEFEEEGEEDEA
Method: To investigate the effect of MBIC on tubulin polymerization, a fluorescence-based tubulin polymerization assay kit (Cytoskeleton-Cat. # BK011P) was used according to the manufacturer’s protocol. Briefly, 200 μl of pure tubulin protein was re-suspended in 420 μl of ice cold Tubulin Polymerization Buffer (TPB) to give a final concentration of 3 mg/ml tubulin, supplemented with 80 mM PIPES, 2 mM MgCl2, 0.5 mM EGTA, 1 mM GTP, 20 % (v/v) glycerol. 100 μl of tubulin reaction mixture were added to each well in a 96-well plate containing the selected concentration of MBIC (10 μM). […] Samples were mixed well and the tubulin assembly was monitored by an increase in fluorescence emission at 340 nm in kinetic mode for 120 min at 37 °C using a plate reader (Infinite® 200 PRO—Tecan plate reader, USA).

[4] = system: Cyclin B1, CDK1, BubR1, Aurora B; assay: Western blot, cell-cycle related proteins in HeLa cells; format: cell-based, human; conditions: HeLa, 0.21, 0.42 and 1 μM, 24 h
Method: Western blot analysis was used to investigate protein expression levels. It was adopted by Suresh Kumar et al.. Briefly, 1 × 10^5 cells/flask was seeded and treated with MBIC in a dose-dependent manner for 24 h. Cells treated with colchicine and nocodazole served as positive controls. Cells were collected and lysed in RIPA buffer supplemented with a 10 μl protease inhibitor cocktail, sodium orthovanadate, and PMSF (Santa Cruz, USA). The lysate was stored at −80 °C until further use. A 40 μg of sample protein was resolved on 10 % SDS-PAGE and transferred to a polyvinylidene difluoride (PVDF) membrane (Merck Millipore, USA). The membrane was blocked in 5 % BSA for 1 h at room temperature following an overnight incubation at 4 °C with the following primary antibodies: Anti-Cyclin B1, anti-CDK1, anti-BubR1, anti-Aurora B, anti-cleaved PARP, anti-cleaved caspase-3/7/9, anti-Bcl-2 and anti-Bax (1:1000) (Cell Signaling Technology (CST), USA), mouse anti β-actin (1:40000) (Sigma-Aldrich, USA) antibodies.
Membranes were washed with 1X TBS-T prior to incubating with HRP-conjugated goat anti-mouse or anti-rabbit secondary antibodies for 2 h at room temperature. Membranes were washed 3 times with 1X TBS-T to remove excess antibodies before the proteins-antibody complex was detected with Amersham ECL prime western blotting detection reagent (GE Healthcare, USA). Western blot images were quantified and processed by ImageJ software (NIH, USA).

[5] = system: two breast cancer cell lines; set-up: method as in earlier work; conditions: cited from earlier work

Question: What does the source list for COC(=O)c1ccc2[nH]c(-c3cc(F)ccc3O)nc2c1 [MBIC, Methyl 2-(5-fluoro-2-hydroxyphenyl)-1H-benzo[d]imidazole-5-carboxylate]?
Answer: IC50 (HeLa cells [1]; 24 hours): 0.21 ± 0.02 µM; IC50 (HeLa cells [1]; 48 hours): 0.19 ± 0.03 µM; SI (Selectivity Index) (HeLa cells [1]; 24 hours): 48.04; SI (Selectivity Index) (HeLa cells [1]; 48 hours): 37.68; selectivity in HeLa cells (HeLa cells [1]; versus WRL-68, 24 and 48 h): > 30 fold; viability at 24 h, 0.21 µM ([2]; 0.21 μM): 48.8%; viability at 24 h, 0.42 µM ([2]; 0.42 μM): 36.2%; viability at 24 h, 1 µM ([2]; 1 μM): 17.4%; late apoptotic cells (Q2, annexin V+ PI+) (HeLa cells [3]; 0.21 μM): 44.8 ± 2.3%; late apoptotic cells (Q2, annexin V+ PI+) (HeLa cells [3]; 1 μM): 74.8 ± 4.2%; Tubulin polymerization maximal velocity (Vmax) (tubulin): 2.45 mOD/min; Aurora B protein level (Western blot) [4]: down-regulated; BubR1 protein level (Western blot) [4]: up-regulated; CDK1 protein level (Western blot) [4]: up-regulation; Cyclin B1 protein level (Western blot) [4]: up-regulation; cytotoxic effect compared to cisplatin [5]: potent cytotoxic effect
